Assays:
[1] = target: T1, MAP/microtubule affinity-regulating kinase 4 (Homo sapiens) (UniProt Q96L34); details: at 10 µM
T1 sequence (whole entry): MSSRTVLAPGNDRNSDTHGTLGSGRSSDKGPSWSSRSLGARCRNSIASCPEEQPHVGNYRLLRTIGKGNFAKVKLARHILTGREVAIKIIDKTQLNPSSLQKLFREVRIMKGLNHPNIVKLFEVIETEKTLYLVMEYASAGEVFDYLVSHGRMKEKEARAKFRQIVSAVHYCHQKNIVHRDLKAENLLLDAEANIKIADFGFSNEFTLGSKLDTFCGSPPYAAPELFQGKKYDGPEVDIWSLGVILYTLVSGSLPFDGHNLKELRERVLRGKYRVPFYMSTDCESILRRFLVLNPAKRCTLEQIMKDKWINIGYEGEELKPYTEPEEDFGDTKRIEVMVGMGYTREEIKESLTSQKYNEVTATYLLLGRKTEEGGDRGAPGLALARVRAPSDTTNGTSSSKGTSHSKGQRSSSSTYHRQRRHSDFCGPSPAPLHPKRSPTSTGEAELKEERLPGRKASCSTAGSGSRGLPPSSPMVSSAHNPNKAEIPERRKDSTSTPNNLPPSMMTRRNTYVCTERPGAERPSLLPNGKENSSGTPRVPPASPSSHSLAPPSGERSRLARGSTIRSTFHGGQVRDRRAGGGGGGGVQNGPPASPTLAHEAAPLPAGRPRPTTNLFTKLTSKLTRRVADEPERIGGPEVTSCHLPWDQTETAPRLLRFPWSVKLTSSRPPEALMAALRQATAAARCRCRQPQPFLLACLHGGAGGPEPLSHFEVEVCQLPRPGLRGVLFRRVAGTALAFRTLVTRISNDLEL

[2] = target: T2, Non-receptor tyrosine-protein kinase TNK1 (Homo sapiens) (UniProt Q13470); details: at 10 µM
T2 sequence (whole entry): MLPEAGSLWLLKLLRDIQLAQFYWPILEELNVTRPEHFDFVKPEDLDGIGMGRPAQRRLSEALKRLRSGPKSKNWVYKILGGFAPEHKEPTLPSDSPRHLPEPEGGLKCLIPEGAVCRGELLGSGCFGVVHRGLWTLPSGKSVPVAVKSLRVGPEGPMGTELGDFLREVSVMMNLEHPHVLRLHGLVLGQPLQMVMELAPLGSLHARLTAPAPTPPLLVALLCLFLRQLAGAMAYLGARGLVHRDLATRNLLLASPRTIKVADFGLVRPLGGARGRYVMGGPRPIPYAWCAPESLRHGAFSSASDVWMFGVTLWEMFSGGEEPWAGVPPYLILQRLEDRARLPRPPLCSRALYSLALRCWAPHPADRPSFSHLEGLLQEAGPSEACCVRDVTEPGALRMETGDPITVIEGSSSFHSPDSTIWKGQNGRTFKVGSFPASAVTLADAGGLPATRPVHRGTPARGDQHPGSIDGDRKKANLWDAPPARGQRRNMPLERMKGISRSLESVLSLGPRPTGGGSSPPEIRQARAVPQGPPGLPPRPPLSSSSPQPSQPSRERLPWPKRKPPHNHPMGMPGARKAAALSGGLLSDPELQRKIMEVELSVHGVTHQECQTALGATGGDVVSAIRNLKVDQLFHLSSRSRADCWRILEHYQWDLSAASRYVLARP

[3] = target: T3, Receptor-interacting serine/threonine-protein kinase 4 (Homo sapiens) (UniProt P57078); experiment: Selectivity interaction (Ambit KINOMEscan and KiNATiv profiling in Jurkat cells) EUB0000090b RIPK4; assay type: cell-based; details: at 1 µM
T3 sequence (whole entry): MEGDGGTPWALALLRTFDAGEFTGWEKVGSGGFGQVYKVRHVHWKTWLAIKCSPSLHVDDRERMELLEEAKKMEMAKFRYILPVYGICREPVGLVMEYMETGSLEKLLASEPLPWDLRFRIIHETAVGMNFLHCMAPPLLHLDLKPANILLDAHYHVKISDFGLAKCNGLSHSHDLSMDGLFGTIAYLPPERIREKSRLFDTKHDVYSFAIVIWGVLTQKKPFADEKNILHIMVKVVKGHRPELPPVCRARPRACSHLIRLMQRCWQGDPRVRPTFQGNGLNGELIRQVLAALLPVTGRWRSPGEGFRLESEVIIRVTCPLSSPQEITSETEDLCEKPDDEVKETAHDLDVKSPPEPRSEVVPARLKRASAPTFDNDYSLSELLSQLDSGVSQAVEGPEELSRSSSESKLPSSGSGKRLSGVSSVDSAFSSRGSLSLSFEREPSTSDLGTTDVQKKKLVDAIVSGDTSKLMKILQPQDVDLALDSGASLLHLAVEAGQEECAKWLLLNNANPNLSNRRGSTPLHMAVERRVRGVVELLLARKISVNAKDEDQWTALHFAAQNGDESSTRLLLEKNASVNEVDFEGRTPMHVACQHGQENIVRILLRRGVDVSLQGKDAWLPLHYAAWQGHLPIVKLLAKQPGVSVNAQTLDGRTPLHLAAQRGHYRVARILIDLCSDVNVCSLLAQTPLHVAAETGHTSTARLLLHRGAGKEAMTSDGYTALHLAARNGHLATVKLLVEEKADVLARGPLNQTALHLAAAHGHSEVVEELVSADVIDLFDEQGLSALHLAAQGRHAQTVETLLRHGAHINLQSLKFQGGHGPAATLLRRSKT

[4] = target: Leukocyte tyrosine kinase receptor (Homo sapiens, UniProt P29376); experiment: Selectivity interaction (KinomeScan (DiscoverX)) EUB0001619a LTK; details: at 1 µM
[5] = target: Serine/threonine-protein kinase pim-2 (Homo sapiens, UniProt Q9P1W9); experiment: Selectivity interaction (KinomeScan (DiscoverX)) EUB0000655a PIM2; details: at 10 µM
[6] = target: AP2-associated protein kinase 1 (Homo sapiens, UniProt Q2M2I8); experiment: Selectivity interaction (KinomeScan (DiscoverX)) EUB0000607a AAK1; details: at 10 µM
AP2-associated protein kinase 1, sequence (Q2M2I8 whole entry, looked up): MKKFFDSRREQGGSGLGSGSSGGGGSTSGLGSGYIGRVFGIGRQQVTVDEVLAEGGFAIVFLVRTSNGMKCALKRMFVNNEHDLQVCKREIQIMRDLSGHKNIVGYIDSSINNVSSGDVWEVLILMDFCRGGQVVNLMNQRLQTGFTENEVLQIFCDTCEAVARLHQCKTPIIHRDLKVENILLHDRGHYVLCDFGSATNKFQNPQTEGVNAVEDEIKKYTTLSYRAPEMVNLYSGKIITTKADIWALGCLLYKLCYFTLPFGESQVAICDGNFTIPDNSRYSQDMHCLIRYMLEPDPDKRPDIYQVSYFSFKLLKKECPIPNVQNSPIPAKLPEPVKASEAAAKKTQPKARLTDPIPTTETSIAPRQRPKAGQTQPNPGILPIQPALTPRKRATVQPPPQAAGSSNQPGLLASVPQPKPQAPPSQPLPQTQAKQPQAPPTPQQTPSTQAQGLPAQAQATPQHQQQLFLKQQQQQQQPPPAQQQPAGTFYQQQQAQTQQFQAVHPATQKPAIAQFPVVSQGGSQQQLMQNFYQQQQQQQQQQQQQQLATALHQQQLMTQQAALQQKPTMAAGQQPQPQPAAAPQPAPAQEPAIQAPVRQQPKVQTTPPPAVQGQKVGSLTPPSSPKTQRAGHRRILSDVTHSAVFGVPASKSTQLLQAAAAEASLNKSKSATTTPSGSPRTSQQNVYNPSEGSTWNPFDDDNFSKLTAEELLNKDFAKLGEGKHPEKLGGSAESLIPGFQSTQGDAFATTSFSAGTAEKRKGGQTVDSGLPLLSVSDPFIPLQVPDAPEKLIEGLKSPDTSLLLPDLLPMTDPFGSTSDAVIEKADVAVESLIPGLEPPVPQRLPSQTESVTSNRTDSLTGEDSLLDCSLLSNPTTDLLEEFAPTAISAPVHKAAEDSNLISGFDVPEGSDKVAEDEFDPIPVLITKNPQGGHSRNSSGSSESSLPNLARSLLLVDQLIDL

Leukocyte tyrosine kinase receptor, sequence (P29376 whole entry): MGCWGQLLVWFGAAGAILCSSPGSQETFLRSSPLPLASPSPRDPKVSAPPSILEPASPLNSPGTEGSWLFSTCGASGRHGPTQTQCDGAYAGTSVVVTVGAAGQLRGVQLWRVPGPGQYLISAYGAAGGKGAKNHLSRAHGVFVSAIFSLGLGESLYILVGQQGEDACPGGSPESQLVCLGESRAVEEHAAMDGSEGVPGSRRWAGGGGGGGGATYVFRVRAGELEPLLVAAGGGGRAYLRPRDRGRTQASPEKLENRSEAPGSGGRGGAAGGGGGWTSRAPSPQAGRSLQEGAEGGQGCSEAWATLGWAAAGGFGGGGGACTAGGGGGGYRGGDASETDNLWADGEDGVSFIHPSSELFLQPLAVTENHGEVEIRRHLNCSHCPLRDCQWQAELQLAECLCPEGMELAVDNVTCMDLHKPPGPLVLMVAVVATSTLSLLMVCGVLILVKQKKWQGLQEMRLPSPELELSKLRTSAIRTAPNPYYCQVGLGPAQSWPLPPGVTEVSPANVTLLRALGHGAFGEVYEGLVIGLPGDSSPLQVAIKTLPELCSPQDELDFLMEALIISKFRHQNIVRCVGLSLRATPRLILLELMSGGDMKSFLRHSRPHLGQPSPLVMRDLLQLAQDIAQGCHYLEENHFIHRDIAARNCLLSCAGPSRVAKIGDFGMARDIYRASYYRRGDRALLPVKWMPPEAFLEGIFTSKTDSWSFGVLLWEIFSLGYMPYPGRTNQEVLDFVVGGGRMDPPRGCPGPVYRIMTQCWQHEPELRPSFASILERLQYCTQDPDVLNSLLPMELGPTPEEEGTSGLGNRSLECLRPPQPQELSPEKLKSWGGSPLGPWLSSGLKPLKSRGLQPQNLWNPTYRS
Serine/threonine-protein kinase pim-2, sequence (Q9P1W9 whole entry, looked up): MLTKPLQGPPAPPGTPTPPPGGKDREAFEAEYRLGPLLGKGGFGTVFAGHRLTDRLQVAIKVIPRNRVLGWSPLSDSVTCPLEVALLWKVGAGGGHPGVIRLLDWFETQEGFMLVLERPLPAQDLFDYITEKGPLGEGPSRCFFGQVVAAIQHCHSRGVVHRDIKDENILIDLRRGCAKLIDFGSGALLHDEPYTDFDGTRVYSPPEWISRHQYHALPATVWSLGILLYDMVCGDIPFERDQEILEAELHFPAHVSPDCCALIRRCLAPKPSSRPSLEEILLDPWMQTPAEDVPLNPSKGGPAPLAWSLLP

With `CCN(CC)CCCCNc1ncc2cc(-c3cc(OC)cc(OC)c3)c(NC(=O)NC(C)(C)C)nc2n1` the % of control [1] was 100% and the % of control [2] was 100%.

Work on `CN(C)C/C=C/C(=O)Nc1ccc(C(=O)N2CCCC(Nc3ncc(Cl)c(-c4c[nH]c5ccccc45)n3)C2)cc1` (stereo unspecified) yielded a % of control [3] of 86%.

`N#Cc1cccc(-c2c[nH]c3ncnc(N4CCOCC4)c23)c1` gave a % of control [4] of 100%.

`CN(C)CCOc1ccc(-c2nc(-c3ccncc3)c(-c3ccc4c(c3)CC/C4=N\O)[nH]2)cc1` gave a % of control [5] of 78%.

Compound `CNC(=O)Nc1ccc(-c2nc(N3CC4CCC(C3)O4)c3cnn(C4CCC5(CC4)OCCO5)c3n2)cc1` has a % of control [6] of 100%.

Source: ChEMBL document CHEMBL5465560, “Selectivity Literature for EUbOPEN Chemogenomic Library” (2024)
